Earlier results on three compounds are cited in patent US8198264B2, “Method for treating head and neck cancer” (National Cancer Center, priority 2006, dated 2012).

Series [1] deals with squamous cell head and neck cancer. To be noted: regimen combined with radiotherapy, meta-analysis.
Series [2] deals with advanced/relapsed head and neck cancer. To be noted: 5-FU drug alone, continuous intravenous infusion.

For `O=c1[nH]cc(F)c(=O)[nH]1` [5-FU, 5-fluorouracil], the “odds ratio (add-on effect on survival)” value in series [1] was 0.66. The response rate in series [2] is given as 15%.
On to `CO[C@@]12[C@H](COC(N)=O)C3=C(C(=O)C(C)=C(N)C3=O)N1C[C@@H]1N[C@@H]12` [Mitomycin C], for which, in series [1], the “odds ratio (add-on effect on survival)” value is on record as 0.54.
For the compound Bleomycin, in series [1], the “odds ratio (add-on effect on survival)” value is 0.80.
